Series [1] can be described thus: LNP mRNA encapsulation efficiency (Quant-iT RiboGreen RNA Assay Kit). The class given is physicochemical. The following applies: LNP of Compound:cholesterol:DSPC:DMG-PEG2000=50:38.5:10:1.5 encapsulating mRNA. The protocol: The mRNA stock solution was dispersed in 20 mM acetic acid solution (pH 5.0) to give a final concentration of 200 μg/mL (aqueous phase). […] The mRNA was mixed with the lipid mixture by T-mixing and controlling the flow rate of aqueous phase and oil phase (3:1) with a total flow rate of 12-50 ml/min, to obtain LNP-encapsulated mRNA. The encapsulated LNP was diluted with buffer (pH 5.0-5.5) and then concentrated by ultrafiltration with replacement of diluent, and finally LNP was concentrated to 200 μg/mL˜600 μg/mL of mRNA, while the pH of LNP was adjusted to about 7-8. Finally, Quant-iT™ RiboGreen™ RNA Assay Kit (Invirtogen by Thermo Fisher Scientific, cat #R11490), and 10% Triton X-100 solution or 10% OTG solution as an emulsion breaker were used to detect the total and free content of mRNA in the LNP, and the encapsulation efficiency of LNP was calculated.

The nature of series [2]: LNP particle size and PDI (Malvern ZetaSizer). The class given is physicochemical. The following applies: LNP of Compound:cholesterol:DSPC:DMG-PEG2000=50:38.5:10:1.5 encapsulating mRNA. The protocol: The mRNA stock solution was dispersed in 20 mM acetic acid solution (pH 5.0) to give a final concentration of 200 μg/mL (aqueous phase). […] The mRNA was mixed with the lipid mixture by T-mixing and controlling the flow rate of aqueous phase and oil phase (3:1) with a total flow rate of 12-50 ml/min, to obtain LNP-encapsulated mRNA. The encapsulated LNP was diluted with buffer (pH 5.0-5.5) and then concentrated by ultrafiltration with replacement of diluent, and finally LNP was concentrated to 200 μg/mL˜600 μg/mL of mRNA, while the pH of LNP was adjusted to about 7-8. […]

The subject of series [3] is SD rats. Briefly: Toxicity assay: clinical markers 24 hours after intravenous LNP administration. The class given is in vivo. The note with it: LNP intravenous 3 mg/kg, 24 hours after administration. The protocol: The nanoparticle samples containing different lipids were administered to rats (SD rats, Zhejiang Vital River Laboratory Animal Technology Co., Ltd, 3 males and 3 females per group, body weight: 220-300 g for female, 260-340 g for male) by intravenous injection at a dose of 3 mg/kg. The expression of various clinical markers was assessed at 24 hours after administration and compared with the expression induced by SM102 LNP formulation (i.e., LNP formulation made from the known SM102 lipid, which was prepared according to the method of Test Example 1 in the same ratio) as well as by phosphate buffered saline (PBS).

The test system of series [4] is rats. The series can be described thus: Toxicity assay: serum ALT/AST and deaths after single intravenous dose of Luciferase mRNA LNPs. The series is classed as in vivo. The following applies: LNP intravenous single dose 3 mg/kg; for animals that died during the test: five animals per group. The protocol:
Animals were grouped according to body weight (five animals per group) one day before administration (Zhejiang Vital River Laboratory Animal Technology Co. Ltd, male, body weight: 170-220 g). […] Luciferase mRNA was encapsulated in said lipid nanoparticle compositions.
The administration volume is 10 mL/kg, and the administration dosage is 3 mg/kg.

Series [5] deals with balb/c mice. Briefly: Extrahepatic delivery of Luciferase mRNA LNPs after intravenous injection, organ fluorescence (liver, spleen, stomach, intestine tract). The class given is in vivo. The following applies: 20 μg LNP intravenous, 24 hours, FIGS. 2A-2D, compared with MC3 and Compound 20A groups. Here is the method:
Five balb/c mice (Zhejiang Vital River Laboratory Animal Technology Co., Ltd, female, 6-8 weeks old, 18-20 g) were taken as a group, labeled with a black marker pen on the tail with numbers 1 # to 5 #; five mice in each group were sequentially injected intravenously with 20 μg of the lipid nanoparticle composition. The lipid nanoparticle compositions of the present invention were prepared according to Test Example 1, in which Luciferase mRNA was encapsulated. A phosphate buffered saline (PBS) group was set up in parallel as a blank control, and an MC3 group was set up as a reference (obtained by preparation according to the method and ratio of Test Example 1).
Fluorescence assay was performed for each group of mice at 24 hours after intravenous administration of the samples ([…] YEASEN,LOT:D5330150, IP, 150 mg/kg was administered 10 minutes in advance for each group), the mice were anesthetized, and then put into a small animal living optical imaging system-IVIS® Lumina LT Series III according to the orders from tail mark 1 # to 5 #. The whole-body fluorescence was detected to evaluate the delivery and the expression of the prepared Luciferase mRNA.
At the end of the test, the mice were sacrificed by cervical dislocation, and the liver, spleen, stomach, and intestine tract were harvested, and the organs were discharged according to the corresponding positions from 1 # to 5 # for fluorescence detection of the organs.

With `CCCCCCCCCCCOC(=O)CCCCCC1(CCCCCCCC(=O)OC(CCCCCCCC)CCCCCCCC)OCC(CCN(C)CC)O1` (stereo not shown) [Compound 10], the “Encapsulation Efficiency” value in series [1] is recorded as 96.5%. In addition, in series [2], the PDI is recorded as 0.07 and the “Particle Size” value turned out to be 78.44 nm.

As for `CCCCCCCCCCCOC(=O)CCCCCC1(CCCCCCCC(=O)OC(CCCCCCCC)CCCCCCCC)OCC(CN(C)C)CO1` (stereo not shown) [Compound 1], the “Encapsulation Efficiency” value in series [1] worked out at 97.22%. Besides, in series [2], the PDI is recorded as 0.1125 and the “Particle Size” value was 66.97 nm.

`CCCCCCCCCCC(=O)OCCCCCCC1(CCCCCCCC(=O)OC(CCCCCCCC)CCCCCCCC)OCC(CN(C)C)O1` (stereo not shown) [Compound 6]: the “Encapsulation Efficiency” value in series [1] is 95.50%. Besides, in series [2], the PDI was 0.1676 and the “Particle Size” value turned out to be 69.85 nm.

Regarding `CCCCCCCCCCCOC(=O)CCCCCN(CCO)CCCCCCCC(=O)OC(CCCCCCCC)CCCCCCCC` [SM-102, reference compound], the “Encapsulation Efficiency” value in series [1] worked out at 97.5%. In series [3], this compound showed an Alanine transaminase of 286.51 U/L and an Aspartate transaminase of 486.42 U/L. Moreover, in series [2], the PDI came to 0.07 and the “Particle Size” value stood at 74.80 nm.

For the compound `CCCCCCCCCCCOC(=O)CCCCCC1(CCCCCC(=O)OCCCCCCCCCCC)OCC(CCN(C)C)O1` (stereo not shown) [Compound 19], the “Encapsulation Efficiency” value in series [1] is 93.3%. Also, in series [2], the PDI was found to be 0.34 and the “Particle Size” value is given as 110.3 nm.

On to `CCCCCC(CCCCC)CCOC(=O)CCCCCCCC1(CCCCCCCC(=O)OCCC(CCCCC)CCCCC)OC[C@H](CCN(C)C)O1` [Compound 20A], for which the “Encapsulation Efficiency” value in series [1] is 92.5%. Moreover, the “animals that died during the test” value in series [4] was “all five rats in Compound 20A group died”. For the same compound, in series [2], the PDI was 0.073 and the “Particle Size” value came out at 85.64 nm.

As to `CCCCCCCCCCCOC(=O)CCCCCC1(CCCCCCCC(=O)OC(CCCCCCCC)CCCCCCCC)OCC(CCCN(C)C)O1` (stereo not shown) [Compound 13], in series [1], the “Encapsulation Efficiency” value came out at 89.3%. Also, the “aspartate aminotransferase and alanine aminotransferase values compared with MC3 and SM102 groups” value in series [4] (serum 24 hours after administration, FIGS. 3A-3B) was “lower than those of the groups of the ionizable lipids MC3 and SM102”. Also, the extrahepatic delivery effect entry in series [5] was “significant extrahepatic delivery effects”. In series [2], the PDI is 0.16 and the “Particle Size” value is 98.15 nm.

`CCCCCCCCCCCOC(=O)CCCCCC1(CCCCCCCC(=O)OC(CCCCCCCC)CCCCCCCC)OCC(CCN(C)CCC)O1` (stereo not shown) [Compound 15]: the “Encapsulation Efficiency” value in series [1] is 97.2%. For the same compound, in series [2], the PDI came out at 0.10 and the “Particle Size” value is reported as 61.73 nm.

As to `CCCCCCCCCCCNC(=O)CCCCCC1(CCCCCCCC(=O)NC(CCCCCCCC)CCCCCCCC)OCC(CCN(C)C)O1` (stereo not shown) [Compound 17], the “Encapsulation Efficiency” value in series [1] was determined as 98.2%. Besides, in series [2], the PDI was found to be 0.05 and the “Particle Size” value was found to be 125.0 nm.

As to `CCCCCCCCCCCOC(=O)CCCCCC1(CCCCCCCC(=O)OC(CCCCCCCC)CCCCCCCC)OCC(CN(C)C)O1` (stereo not shown) [Compound 3], the “Encapsulation Efficiency” value in series [1] is given as 95.04%. Besides, in series [2], the PDI amounted to 0.1264 and the “Particle Size” value is listed as 95.04 nm.

Turning to `CCCCCCCCCCC(=O)OCCCCCCC1(CCCCCCCC(=O)OC(CCCCCCCC)CCCCCCCC)OC[C@@H](CCN(C)C)O1` (stereo partly shown) [Compound 5B], the “Encapsulation Efficiency” value in series [1] is 98.4%. In series [2], the PDI worked out at 0.04848 and the “Particle Size” value worked out at 67.95 nm.

On to `CCCCCCCCCCC(=O)OCCCCCCC1(CCCCCCCCOC(=O)C(CCCCCCCC)CCCCCCCC)OCC(CN(C)C)CO1` (stereo not shown) [Compound 9], for which, in series [1], the “Encapsulation Efficiency” value stood at 95.07%. Besides, in series [2], the PDI was determined as 0.1368 and the “Particle Size” value came to 71.61 nm.

Take `CCCCCCCCCCC(=O)OCCCCCCC1(CCCCCCCCOC(=O)C(CCCCCCCC)CCCCCCCC)OCC(CN(C)C)O1` (stereo not shown) [Compound 7]: the “Encapsulation Efficiency” value in series [1] is given as 96.52%. Further, in series [2], the PDI is on record as 0.1537 and the “Particle Size” value stood at 92.38 nm.

On to `CCCCCCCCCCC(=O)OCCCCCCC1(CCCCCCCCOC(=O)C(CCCCCCCC)CCCCCCCC)OCC(CCN(C)C)O1` (stereo not shown) [Compound 8], for which the “Encapsulation Efficiency” value in series [1] came out at 90.99%. Also, in series [2], the PDI was found to be 0.09334 and the “Particle Size” value turned out to be 99.68 nm.

With `CCCCCCCCCCCOC(=O)CCCCCC1(CCCCCCCC(=O)OC(CCCCCCCC)CCCCCCCC)OCC(CCCCN(C)C)O1` (stereo not shown) [Compound 14], the “Encapsulation Efficiency” value in series [1] stood at 90.97%. Besides, in series [2], the PDI came to 0.16 and the “Particle Size” value is 118.1 nm.

With `CCCCC/C=C\C/C=C\CCCCCCCCC(CCCCCCCC/C=C\C/C=C\CCCCC)OC(=O)CCCN(C)C` [MC3, reference compound], the “Encapsulation Efficiency” value in series [1] was determined as 96.7%. Further, in series [4], the “animals that died during the test” value is reported as “four rats in the MC3 group died”. Also, in series [2], the PDI is given as 0.15 and the “Particle Size” value came out at 72.70 nm.

Turning to `CCCCCCCCCCCOC(=O)CCCCCC1(CCCCCCCC(=O)OC(CCCCCCCC)CCCCCCCC)OCC(CCN(CC)C(C)C)O1` (stereo not shown) [Compound 16], in series [1], the “Encapsulation Efficiency” value is given as 97.6%. For the same compound, in series [2], the PDI worked out at 0.03 and the “Particle Size” value stood at 71.68 nm.

In the case of `CCCCCCCCCCCOC(=O)CCCCCC1(CCCCCCCC(=O)OC(CCCCCCCC)CCCCCCCC)OCC(CCN(C)C)O1` (stereo not shown) [Compound 2], the “Encapsulation Efficiency” value in series [1] worked out at 92.32%. For the same compound, in series [3], the Alanine transaminase is 116.27 U/L and the Aspartate transaminase amounted to 342.17 U/L. Moreover, in series [2], the PDI is given as 0.03414 and the “Particle Size” value was 70.27 nm.

For `CCCCCCCCCCC(=O)OCCCCCCC1(CCCCCCCC(=O)OC(CCCCCCCC)CCCCCCCC)OCC(CCN(C)C)O1` (stereo not shown) [Compound 5], the “Encapsulation Efficiency” value in series [1] was 94.92%. In addition, in series [3], the Alanine transaminase is reported as 65.72 U/L and the Aspartate transaminase is listed as 251.10 U/L. Also, in series [2], the PDI is recorded as 0.04107 and the “Particle Size” value is on record as 89.54 nm.

In the case of `CCCCCCCCC(CCCCCCCC)CC(=O)CCCCCCCC1(CCCCCCCC(=O)OC(CCCCCCCC)CCCCCCCC)OCC(CCN(C)C)O1` (stereo not shown) [Compound 18], in series [1], the “Encapsulation Efficiency” value was found to be 96.5%. Also, in series [2], the PDI stood at 0.10 and the “Particle Size” value stood at 69.23 nm.

As to `CCCCCCCCC(CCCCCC)C(=O)OCCCCCCC1(CCCCCCOC(=O)C(CCCCCC)CCCCCCCC)OCC(CCN(C)C)O1` (stereo not shown) [Compound 21], the “Encapsulation Efficiency” value in series [1] was found to be 96.8%. Moreover, in series [2], the PDI is 0.3138 and the “Particle Size” value was 92.89 nm.

`CCCCCCCCCCC(=O)OCCCCCCC1(CCCCCCCC(=O)OC(CCCCCCCC)CCCCCCCC)OCC(CN(C)C)CO1` (stereo not shown) [Compound 4]: the “Encapsulation Efficiency” value in series [1] came out at 96.23%. In series [2], the PDI came out at 0.1387 and the “Particle Size” value amounted to 69.03 nm.

For the compound `CCCCCCCCCCCOC(=O)CCCCCC1(CCCCCCCC(=O)OC(CCCCCCCC)CCCCCCCC)OCC(CCN(CC)CC)O1` (stereo not shown) [Compound 11], the “Encapsulation Efficiency” value in series [1] was determined as 97.5%. In series [2], the PDI worked out at 0.06 and the “Particle Size” value turned out to be 80.34 nm.
